#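 Compound exposure: 48 hours, 5 concentrations, 96-well plates. GI50 marks 50% less growth. TGI is the concentration that stops growth completely.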
# Legend:
# Experiment in all cases: NCI anticancer screen, dose series, 48 h
# 786-0 renal = test system: 786-0 renal
# A498 renal = test system: A498 renal
# A549 NSCLC = test system: A549 NSCLC
# ACHN renal = test system: ACHN renal
# BT-549 breast = test system: BT-549 breast
# CAKI-1 renal = test system: CAKI-1 renal
# CCRF-CEM leukemia = test system: CCRF-CEM leukemia
# COLO 205 colon = test system: COLO 205 colon
# DU-145 prostate = test system: DU-145 prostate
# EKVX NSCLC = test system: EKVX NSCLC
# HCC-2998 colon = test system: HCC-2998 colon
# HCT-116 colon = test system: HCT-116 colon
# HCT-15 colon = test system: HCT-15 colon
# HL-60(TB) leukemia = test system: HL-60(TB) leukemia
# HOP-62 NSCLC = test system: HOP-62 NSCLC
# HOP-92 NSCLC = test system: HOP-92 NSCLC
# HS 578T breast = test system: HS 578T breast
# HT29 colon = test system: HT29 colon
# IGROV1 ovarian = test system: IGROV1 ovarian
# K-562 leukemia = test system: K-562 leukemia
# KM12 colon = test system: KM12 colon
# LOX IMVI melanoma = test system: LOX IMVI melanoma
# M14 melanoma = test system: M14 melanoma
# MALME-3M melanoma = test system: MALME-3M melanoma
# MCF7 breast = test system: MCF7 breast
# MDA-MB-231 breast = test system: MDA-MB-231 breast
# MDA-MB-435 = test system: MDA-MB-435
# MOLT-4 leukemia = test system: MOLT-4 leukemia
# NCI-H226 lung = test system: NCI-H226 lung
# NCI-H23 lung = test system: NCI-H23 lung
# NCI-H460 lung = test system: NCI-H460 lung
# NCI-H522 lung = test system: NCI-H522 lung
# NCI/ADR-RES ovarian = test system: NCI/ADR-RES ovarian
# OVCAR-3 ovarian = test system: OVCAR-3 ovarian
# OVCAR-4 ovarian = test system: OVCAR-4 ovarian
# OVCAR-5 ovarian = test system: OVCAR-5 ovarian
# OVCAR-8 ovarian = test system: OVCAR-8 ovarian
# PC-3 prostate = test system: PC-3 prostate
# RPMI-8226 leukemia = test system: RPMI-8226 leukemia
# RXF 393 renal = test system: RXF 393 renal
# SF-268 CNS = test system: SF-268 CNS
# SF-295 CNS = test system: SF-295 CNS
# SF-539 CNS = test system: SF-539 CNS
# SK-MEL-2 melanoma = test system: SK-MEL-2 melanoma
# SK-MEL-28 melanoma = test system: SK-MEL-28 melanoma
# SK-MEL-5 melanoma = test system: SK-MEL-5 melanoma
# SK-OV-3 ovarian = test system: SK-OV-3 ovarian
# SN12C renal = test system: SN12C renal
# SNB-19 CNS = test system: SNB-19 CNS
# SNB-75 CNS = test system: SNB-75 CNS
# SW-620 colon = test system: SW-620 colon
# T-47D breast = test system: T-47D breast
# TK-10 renal = test system: TK-10 renal
# U251 CNS = test system: U251 CNS
# UACC-257 melanoma = test system: UACC-257 melanoma
# UACC-62 melanoma = test system: UACC-62 melanoma
# UO-31 renal = test system: UO-31 renal
structure (smiles),measurement,setting,value
COC1C(CO)OC(n2c3ccccc3c3c4c(c5c6ccccc6[nH]c5c32)C(=O)NC4=O)C(OC(=O)C(N)CCCCN)C1O (centres undefined),GI50,786-0 renal,111 nM
same,TGI,786-0 renal,3300 nM
same,GI50,A498 renal,5 nM
same,TGI,A498 renal,230 nM
same,GI50,A549 NSCLC,962 nM
same,TGI,A549 NSCLC,9040 nM
same,GI50,ACHN renal,22.6 nM
same,TGI,ACHN renal,169 nM
same,GI50,BT-549 breast,165 nM
same,TGI,BT-549 breast,2480 nM
same,GI50,CAKI-1 renal,23.2 nM
same,TGI,CAKI-1 renal,65.5 nM
same,GI50,CCRF-CEM leukemia,38.7 nM
same,TGI,CCRF-CEM leukemia,2830 nM
same,GI50,COLO 205 colon,96.3 nM
same,TGI,COLO 205 colon,5670 nM
same,GI50,DU-145 prostate,168 nM
same,TGI,DU-145 prostate,3210 nM
same,GI50,EKVX NSCLC,592 nM
same,TGI,EKVX NSCLC,3150 nM
same,GI50,HCC-2998 colon,173 nM
same,TGI,HCC-2998 colon,1500 nM
same,GI50,HCT-116 colon,83.4 nM
same,TGI,HCT-116 colon,50000 nM
same,GI50,HCT-15 colon,1920 nM
same,TGI,HCT-15 colon,9530 nM
same,GI50,HL-60(TB) leukemia,5.92 nM
same,TGI,HL-60(TB) leukemia,59.7 nM
same,GI50,HOP-62 NSCLC,144 nM
same,TGI,HOP-62 NSCLC,2400 nM
same,GI50,HOP-92 NSCLC,35.3 nM
same,TGI,HOP-92 NSCLC,735 nM
same,GI50,HS 578T breast,299 nM
same,TGI,HS 578T breast,2260 nM
same,GI50,HT29 colon,357 nM
same,TGI,HT29 colon,12900 nM
same,GI50,IGROV1 ovarian,102 nM
same,TGI,IGROV1 ovarian,2930 nM
same,GI50,K-562 leukemia,30.8 nM
same,TGI,K-562 leukemia,8990 nM
same,GI50,KM12 colon,52.9 nM
same,TGI,KM12 colon,599 nM
same,GI50,LOX IMVI melanoma,5 nM
same,TGI,LOX IMVI melanoma,35.1 nM
same,GI50,M14 melanoma,132 nM
same,TGI,M14 melanoma,3230 nM
same,GI50,MALME-3M melanoma,24.5 nM
same,TGI,MALME-3M melanoma,157 nM
same,GI50,MCF7 breast,79.6 nM
same,TGI,MCF7 breast,5450 nM
same,GI50,MDA-MB-231 breast,50.4 nM
same,TGI,MDA-MB-231 breast,1010 nM
same,GI50,MDA-MB-435,123 nM
same,TGI,MDA-MB-435,1430 nM
same,GI50,MOLT-4 leukemia,56 nM
same,TGI,MOLT-4 leukemia,13300 nM
same,GI50,NCI-H226 lung,37.1 nM
same,TGI,NCI-H226 lung,291 nM
same,GI50,NCI-H23 lung,200 nM
same,TGI,NCI-H23 lung,1530 nM
same,GI50,NCI-H460 lung,1060 nM
same,TGI,NCI-H460 lung,3780 nM
same,GI50,NCI-H522 lung,15.7 nM
same,TGI,NCI-H522 lung,440 nM
same,GI50,NCI/ADR-RES ovarian,1400 nM
same,TGI,NCI/ADR-RES ovarian,21900 nM
same,GI50,OVCAR-3 ovarian,144 nM
same,TGI,OVCAR-3 ovarian,1160 nM
same,GI50,OVCAR-4 ovarian,593 nM
same,TGI,OVCAR-4 ovarian,5710 nM
same,GI50,OVCAR-5 ovarian,386 nM
same,TGI,OVCAR-5 ovarian,2800 nM
same,GI50,OVCAR-8 ovarian,119 nM
same,TGI,OVCAR-8 ovarian,6970 nM
same,GI50,PC-3 prostate,116 nM
same,TGI,PC-3 prostate,2580 nM
same,GI50,RPMI-8226 leukemia,1330 nM
same,TGI,RPMI-8226 leukemia,11600 nM
same,GI50,RXF 393 renal,53.7 nM
same,TGI,RXF 393 renal,815 nM
same,GI50,SF-268 CNS,23.2 nM
same,TGI,SF-268 CNS,721 nM
same,GI50,SF-295 CNS,165 nM
same,TGI,SF-295 CNS,1950 nM
same,GI50,SF-539 CNS,17.3 nM
same,TGI,SF-539 CNS,139 nM
same,GI50,SK-MEL-2 melanoma,505 nM
same,TGI,SK-MEL-2 melanoma,1710 nM
same,GI50,SK-MEL-28 melanoma,165 nM
same,TGI,SK-MEL-28 melanoma,2260 nM
same,GI50,SK-MEL-5 melanoma,42.6 nM
same,TGI,SK-MEL-5 melanoma,125 nM
same,GI50,SK-OV-3 ovarian,225 nM
same,TGI,SK-OV-3 ovarian,3910 nM
same,GI50,SN12C renal,23.7 nM
same,TGI,SN12C renal,56.2 nM
same,GI50,SNB-19 CNS,88.9 nM
same,TGI,SNB-19 CNS,14200 nM
same,GI50,SNB-75 CNS,156 nM
same,TGI,SNB-75 CNS,3660 nM
same,GI50,SW-620 colon,10.8 nM
same,TGI,SW-620 colon,1670 nM
same,GI50,T-47D breast,14.5 nM
same,TGI,T-47D breast,187 nM
same,GI50,TK-10 renal,371 nM
same,TGI,TK-10 renal,1460 nM
same,GI50,U251 CNS,12.8 nM
same,TGI,U251 CNS,311 nM
same,GI50,UACC-257 melanoma,437 nM
same,TGI,UACC-257 melanoma,5300 nM
same,GI50,UACC-62 melanoma,28.1 nM
same,TGI,UACC-62 melanoma,185 nM
same,GI50,UO-31 renal,215 nM
same,TGI,UO-31 renal,903 nM

# Source: PubChem BioAssay (NCI)
